The values below come from patent US7678788B2, “Diazabicyclic aryl derivatives” (Neurosearch A/S, priority 2003, dated 2010).

Molecules are shown by their SMILES.

This test deals with T1, α7-subtype of nicotinic receptors (Rattus norvegicus, UniProt Q05941).
T1 construct: Cerebral cortices from male Wistar rats (150-250 g) are homogenised; from tissue; host or cells: rat cerebral cortex membrane homogenate
Nature of the test: In vitro inhibition of 3H-α-bungarotoxine binding in rat brain. The following applies: rat cerebral cortex homogenate; 3H-α-bungarotoxine 2 nM; 2 hours at 37° C.

T1 sequence (Q05941 23-502): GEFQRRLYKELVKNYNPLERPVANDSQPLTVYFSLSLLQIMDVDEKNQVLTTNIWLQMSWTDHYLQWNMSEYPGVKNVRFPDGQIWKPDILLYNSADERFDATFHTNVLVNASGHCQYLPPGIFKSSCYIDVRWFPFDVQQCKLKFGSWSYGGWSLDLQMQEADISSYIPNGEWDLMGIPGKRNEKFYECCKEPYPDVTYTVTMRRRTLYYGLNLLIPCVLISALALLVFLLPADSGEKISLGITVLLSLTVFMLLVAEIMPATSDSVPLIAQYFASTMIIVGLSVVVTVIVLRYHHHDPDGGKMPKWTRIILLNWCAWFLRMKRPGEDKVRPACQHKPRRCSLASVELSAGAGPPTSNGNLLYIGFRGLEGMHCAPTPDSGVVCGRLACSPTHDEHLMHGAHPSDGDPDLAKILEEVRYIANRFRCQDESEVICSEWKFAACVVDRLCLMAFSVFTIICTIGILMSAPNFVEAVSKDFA

As for `Nc1cccc(-c2ccc(C(=O)N3CCN4CCC3CC4)o2)c1` [Compound C3, (1,4-Diaza-bicyclo[3.2.2]-non-4-yl)-5-(3-aminophenyl)-furan-2-yl-methanone], the IC50 turned out to be 80 nM.
Consider `O=C(c1ccc(-c2cccc(C(F)(F)F)c2)o1)N1CCN2CCC1CC2` [Compound A5, (1,4-Diaza-bicyclo[3.2.2]-non-4-yl)-5-(3-trifluoromethylphenyl)-furan-2-yl-methanone], for which the IC50 came to 51 nM.
In the case of `O=CNc1ccc(-c2ccc(C(=O)N3CCN4CCC3CC4)o2)cc1` [Compound F1, (1,4-Diaza-bicyclo[3.2.2]-non-4-yl)-5-(4-formylaminophenyl)-furan-2-yl-methanone] it was 17 nM.
Then `O=C(c1ccco1)N1CCN2CCC1CC2` [Compound A1, (1,4-Diaza-bicyclo[3.2.2]-non-4-yl)-furan-2-yl-methanone], with 540 nM.
